# Data from patent publication US8778298B2, “Isotope labeled 2-arylpropionic acid compounds and process for production of same, and molecular probe for positron emission tomography and method for imaging of cyclooxygenase and the like using same” (Riken, priority 2009, dated 2014).
# Tests used:
# Assay type in all cases: in vivo
# cyclooxygenase-2 [1] = experiment: Ex vivo autoradiography (ARG) of rat brain section after PET, compared with cyclooxygenase-2 immunostaining
# Procedure: PET was performed using a brain inflammation model rat for the [^11C]ketoprofen methyl ester (8) synthesized in Example 6. In the experiment, a trace amount, 0.5 μg, of lipopolysaccharide (LPS) that is a constituent of a gram-negative bacteria cell wall outer membrane was injected into the left striatum of a rat, thereby inducing brain inflammation (Hunter R L, Dragicevic N, Seifert K, Choi D Y, Liu M, Kim H C, Cass W A, Sullivan P G, Bing G. Inflammation induces mitochondrial dysfunction and dopaminergic neurodegeneration in the nigrostriatal system. J. Neurochem. 2007100:5:1375-86.). The [^11C]ketoprofen methyl ester (8) was administered to a rat after 1 day from injection of LPS through a caudal vein, PET was performed for 45 minutes using a PET apparatus for small animals (manufactured by microPET, SIMENS). The injection solution of the [^11C]ketoprofen methyl ester (radioactivity 72 to 74 MBq) was prepared by diluting with saline to 1.0 CC volume. […] In the experiment, the rat was perfused with saline, and a section prepared with 2 mm thickness, which was obtained from the brain taken out from the rat, was exposed on an imaging plate BAS SR-2040 (manufactured by Fujifilm Corporation) for 1 hour to read using a fluoroimage analyzer (FLA7000). […]
# cyclooxygenase-2 [2] = experiment: PET imaging using brain inflammation model rat (LPS injected into left striatum)
# Procedure: PET was performed using a brain inflammation model rat for the [^11C]ketoprofen methyl ester (8) synthesized in Example 6. In the experiment, a trace amount, 0.5 μg, of lipopolysaccharide (LPS) that is a constituent of a gram-negative bacteria cell wall outer membrane was injected into the left striatum of a rat, thereby inducing brain inflammation (Hunter R L, Dragicevic N, Seifert K, Choi D Y, Liu M, Kim H C, Cass W A, Sullivan P G, Bing G. Inflammation induces mitochondrial dysfunction and dopaminergic neurodegeneration in the nigrostriatal system. J. Neurochem. 2007100:5:1375-86.). The [^11C]ketoprofen methyl ester (8) was administered to a rat after 1 day from injection of LPS through a caudal vein, PET was performed for 45 minutes using a PET apparatus for small animals (manufactured by microPET, SIMENS). The injection solution of the [^11C]ketoprofen methyl ester (radioactivity 72 to 74 MBq) was prepared by diluting with saline to 1.0 CC volume. In order to further study an effect of inhibiting bonds by a non-RI labeled body, an injection solution added with 10 mg/kg of ketoprofen methyl ester (final concentration of a solvent was 5% DMSO, 5% tween20) was prepared. On completion of PET imaging, a rat brain section was prepared and an Ex vivo autoradiography (ARG) experiment was performed. In the experiment, the rat was perfused with saline, and a section prepared with 2 mm thickness, which was obtained from the brain taken out from the rat, was exposed on an imaging plate BAS SR-2040 (manufactured by Fujifilm Corporation) for 1 hour to read using a fluoroimage analyzer (FLA7000). In order to identify an expression site of cyclooxygenase-2, chemical staining of an immune tissue in a brain section was performed using a specific antibody. That is, 20 μm of a frozen section prepared from the brain section used in the autoradiography mentioned above and pasted on a slide glass was incubated with anti-cyclooxygenase-2 (rabbit IgG, polyclonal antibody, manufactured by Cayman) diluted to PBS-T at a concentration of 200 times as a primary antibody at 4° C. overnight. […]
# APP-Tg mouse brain = experiment: PET imaging of Alzheimer disease model animal (APP-Tg mouse vs wild type mouse)
# From the text: PET images were taken using an Alzheimer disease model mouse for the [^11C]ketoprofen methyl ester (21) synthesized in Example 6. For the Alzheimer disease model mouse, a transgenic mouse (APP-Tg) excessively expressing amyloid precursor protein (APP) in familial Alzheimer disease was purchased from Taconic Farms, Inc. USA to be used. In 24 months old when accumulation of amyloid β protein was confirmed as pathological change of Alzheimer disease, the [^11C]ketoprofen methyl ester (21) was administered through a caudal vein, and PET images were taken for 30 minutes using a PET apparatus for small animals (microPET, manufactured by SIMENS). The injection solution of the [^11C]ketoprofen methyl ester (21) (radioactivity 45 to 60 MBq) was prepared by diluting with saline to 1.0 CC volume. SUV (Standard Uptake Value)=tissue radioactivity in region of interest (MBq/g)÷[administration amount (MBq)/body weight (g)] was used as the index of an accumulation level, to compare with a brain of a wild type mouse that is a normal mouse in terms of an accumulation amount into the APP-Tg mouse brain.
structure (smiles),measurement,setting,value
"COC(=O)C([11CH3])c1cccc(C(=O)c2ccccc2)c1 (stereo not shown) [[^11C]ketoprofen methyl ester (8), [^11C]ketoprofen methyl ester]",accumulation in ex vivo autoradiography (ARG) of rat brain section,"cyclooxygenase-2 [1]; 2 mm brain section taken on completion of PET imaging, LPS rat",accumulated specifically in an inflammation site
same,accumulated site versus immunostaining of cyclooxygenase-2,"cyclooxygenase-2 [1]; 20 μm frozen section from ARG brain section, anti-cyclooxygenase-2 antibody, DAB method",correspond with a positive site of immunostaining of cyclooxygenase-2
same,accumulation in inflammation region with co-administered non-RI labeled ketoprofen methyl ester (specificity),cyclooxygenase-2 [2]; 10 mg/kg of non-RI labeled ketoprofen methyl ester added to injection solution,significantly reduced
same,passage through the blood-brain barrier (PET),"cyclooxygenase-2 [2]; rat 1 day after 0.5 μg LPS into left striatum, tracer via caudal vein, PET 45 minutes",passed through the blood-brain barrier
same,accumulation of radioactivity in brain (addition average of PET images),"cyclooxygenase-2 [2]; rat 1 day after LPS into left striatum, tracer via caudal vein, 45 minutes after administration",accumulated in an inflammation region around the LPS injected site in the left side of the brain
same,"accumulation amount (SUV) in brain, APP-Tg versus wild type mouse","APP-Tg mouse brain; 24 months old APP-Tg mouse, caudal vein, PET images in 25 minutes after 5 minutes from administration",highly accumulated in the APP-Tg mouse brain as compared with the wild type mouse brain
same,site of high accumulation versus reported site of amyloid β accumulation,"APP-Tg mouse brain; APP-Tg mouse brain, compared with literature report (Am J Pathol. 1998)",corresponded with a site that was reported of accumulation of amyloid β
